# Read-outs that look alike come from different tables or passages of the source.
compound,measurement,setting,value
"Cc1cccc([C@H](C)c2cnc[nH]2)c1C [dexmedetomidine, Dexmedetomidine]",solubility of dexmedetomidine,in Duro-Tak 87-2979,less than 2%
same,solubility of dexmedetomidine,in Duro-Tak 387/87-2353,10-15%
same,solubility of dexmedetomidine,in hydroxyl functionalized acrylate polymer,less than 1%
same,solubility of dexmedetomidine,in lauryl lactate,5 to 10%
same,solubility of dexmedetomidine,in levulinic acid,~60%
same,solubility of dexmedetomidine,in oleic acid,~40%
same,solubility of dexmedetomidine,in propylene glycolmonolaurate,5 to 10%
